Measurements from patent publication US20180325914A1, “INCREASING STORAGE OF VITAMIN A, VITAMIN D AND/OR LIPIDS” (Salk Institute for Biological Studies, priority 2014, published 2018).

Test system: primary HSCs
[1] = mRNA-Seq expression, primary HSCs, day 6 with JQ1

Cc1sc2c(c1C)C(c1ccc(Cl)cc1)=N[C@@H](CC(=O)OC(C)(C)C)c1nnc(C)n1-2 [JQ1, (S)-tert-butyl 2-(4-(4-chlorophenyl)-2,3,9-trimethyl-6H-thieno[3,2-f][1,2,4]triazolo[4,3-a][1,4]diazepin-6-yl)acetate]
Elfn1 value_2 (Day_6_JQ1) [1]: 0.4141
Eln value_2 (Day_6_JQ1) [1]: 0.6077
Esrp2 value_2 (Day_6_JQ1) [1]: 0.7459
Etv4 value_2 (Day_6_JQ1) [1]: 1.116
F3 value_2 (Day_6_JQ1) [1]: 32.9312
Fam132b value_2 (Day_6_JQ1) [1]: 0.6136
Fam198b value_2 (Day_6_JQ1) [1]: 1.907
Fblim1 value_2 (Day_6_JQ1) [1]: 12.2302
Fibin value_2 (Day_6_JQ1) [1]: 1.847
Fkbp10 value_2 (Day_6_JQ1) [1]: 27.4534
Fkbp11 value_2 (Day_6_JQ1) [1]: 6.955
Fst value_2 (Day_6_JQ1) [1]: 3.079
Fxyd6 value_2 (Day_6_JQ1) [1]: 0.9921
Gbx2 value_2 (Day_6_JQ1) [1]: 0.4331
Gjb3 value_2 (Day_6_JQ1) [1]: 0.08229
Gjb5 value_2 (Day_6_JQ1) [1]: 0.1388
Gm12824 value_2 (Day_6_JQ1) [1]: 0.8107
Gpr176 value_2 (Day_6_JQ1) [1]: 5.413
Has2 value_2 (Day_6_JQ1) [1]: 1.812
Hebp2 value_2 (Day_6_JQ1) [1]: 0.7684
Hhipl1 value_2 (Day_6_JQ1) [1]: 0.517
Hsd11b1 value_2 (Day_6_JQ1) [1]: 3.839
Hspb2 value_2 (Day_6_JQ1) [1]: 6.826
Hspb7 value_2 (Day_6_JQ1) [1]: 0.2986
Htra3 value_2 (Day_6_JQ1) [1]: 1.896
Ivl value_2 (Day_6_JQ1) [1]: 0.5056
Jph2 value_2 (Day_6_JQ1) [1]: 3.451
Kcnmb1 value_2 (Day_6_JQ1) [1]: 0.01726
Kctd15 value_2 (Day_6_JQ1) [1]: 1.124
Lmod1 value_2 (Day_6_JQ1) [1]: 5.533
Lox14 value_2 (Day_6_JQ1) [1]: 6.181
Lox value_2 (Day_6_JQ1) [1]: 102.497
Ltbp1 value_2 (Day_6_JQ1) [1]: 3.833
Ltbp2 value_2 (Day_6_JQ1) [1]: 4.7344
Mfap4 value_2 (Day_6_JQ1) [1]: 0.2994
Mfap5 value_2 (Day_6_JQ1) [1]: 1.011
Mgp value_2 (Day_6_JQ1) [1]: 22.5571
Mmp23 value_2 (Day_6_JQ1) [1]: 6.014
Mrap value_2 (Day_6_JQ1) [1]: 0.2549
Mrgprf value_2 (Day_6_JQ1) [1]: 1.3677
Myl9 value_2 (Day_6_JQ1) [1]: 142.669
Naalad2 value_2 (Day_6_JQ1) [1]: 0.9739
Nfatc4 value_2 (Day_6_JQ1) [1]: 2.235
Npr3 value_2 (Day_6_JQ1) [1]: 8.408
Olfm2 value_2 (Day_6_JQ1) [1]: 0.8372
P2ry14 value_2 (Day_6_JQ1) [1]: 6.946
P4ha3 value_2 (Day_6_JQ1) [1]: 1.335
Pappa value_2 (Day_6_JQ1) [1]: 0.6606
Pdgfc value_2 (Day_6_JQ1) [1]: 1.527
Pdgfrl value_2 (Day_6_JQ1) [1]: 0.4741
Pdlim3 value_2 (Day_6_JQ1) [1]: 0.5953
Pla1a value_2 (Day_6_JQ1) [1]: 2.047
Postn value_2 (Day_6_JQ1) [1]: 58.0905
Prelid2 value_2 (Day_6_JQ1) [1]: 1.71
Prkar1b value_2 (Day_6_JQ1) [1]: 1.1011
Pstpip1 value_2 (Day_6_JQ1) [1]: 0.2607
Ptgs2 value_2 (Day_6_JQ1) [1]: 2.221
Ptprn value_2 (Day_6_JQ1) [1]: 5.204
Rap1gap2 value_2 (Day_6_JQ1) [1]: 2.58
Rasl12 value_2 (Day_6_JQ1) [1]: 0.3063
Rgs4 value_2 (Day_6_JQ1) [1]: 2.345
Saa3 value_2 (Day_6_JQ1) [1]: 10.7546
Serpinb9b value_2 (Day_6_JQ1) [1]: 4.136
Serpinf1 value_2 (Day_6_JQ1) [1]: 66.5572
Sertad4 value_2 (Day_6_JQ1) [1]: 0.6904
Slc16a3 value_2 (Day_6_JQ1) [1]: 10.7025
Sorcs2 value_2 (Day_6_JQ1) [1]: 0.1588
Spon2 value_2 (Day_6_JQ1) [1]: 12.3682
Srpx2 value_2 (Day_6_JQ1) [1]: 2.998
Stra6 value_2 (Day_6_JQ1) [1]: 0.07484
Syt13 value_2 (Day_6_JQ1) [1]: 6.257
Tfpi2 value_2 (Day_6_JQ1) [1]: 4.486
Thy1 value_2 (Day_6_JQ1) [1]: 2.222
Tll1 value_2 (Day_6_JQ1) [1]: 0.3916
Tmeff1 value_2 (Day_6_JQ1) [1]: 5.181
Tmem200a value_2 (Day_6_JQ1) [1]: 0.3192
Tnfsf8 value_2 (Day_6_JQ1) [1]: 0.1581
Tnfsf13b value_2 (Day_6_JQ1) [1]: 1.119
Tnfsf15 value_2 (Day_6_JQ1) [1]: 0.07599
Tnfsf18 value_2 (Day_6_JQ1) [1]: 0.24
Trpc6 value_2 (Day_6_JQ1) [1]: 0.05189
Wbscr17 value_2 (Day_6_JQ1) [1]: 0.7256
Wisp1 value_2 (Day_6_JQ1) [1]: 4.262
Wisp2 value_2 (Day_6_JQ1) [1]: 1.369
Wnt11 value_2 (Day_6_JQ1) [1]: 1.299
Zfp827 value_2 (Day_6_JQ1) [1]: 0.4625
1110003E01Rik value_2 (mRNA-Seq, sample Day_6_JQ1): 69.1288
1600014C10Rik value_2 (mRNA-Seq, sample Day_6_JQ1): 21.437
2310022B05Rik value_2 (mRNA-Seq, sample Day_6_JQ1): 132.474
Adam15 value_2 (mRNA-Seq, sample Day_6_JQ1): 78.5951
Afap1l2 value_2 (mRNA-Seq, sample Day_6_JQ1): 58.9193
Ahdc1 value_2 (mRNA-Seq, sample Day_6_JQ1): 13.24
Apln value_2 (mRNA-Seq, sample Day_6_JQ1): 16.0329
Arhgap11a value_2 (mRNA-Seq, sample Day_6_JQ1): 12.9839
Arhgef17 value_2 (mRNA-Seq, sample Day_6_JQ1): 35.1441
Aurkb value_2 (mRNA-Seq, sample Day_6_JQ1): 18.2306
BC018242 value_2 (mRNA-Seq, sample Day_6_JQ1): 17.3751
BC031353 value_2 (mRNA-Seq, sample Day_6_JQ1): 10.0028
BC046404 value_2 (mRNA-Seq, sample Day_6_JQ1): 27.3155
Bambi value_2 (mRNA-Seq, sample Day_6_JQ1): 20.2742
Basp1 value_2 (mRNA-Seq, sample Day_6_JQ1): 173.108
Bicc1 value_2 (mRNA-Seq, sample Day_6_JQ1): 86.5801
Bphl value_2 (mRNA-Seq, sample Day_6_JQ1): 18.4476
C330027C09Rik value_2 (mRNA-Seq, sample Day_6_JQ1): 10.1673
Cadm4 value_2 (mRNA-Seq, sample Day_6_JQ1): 23.19
Cbx5 value_2 (mRNA-Seq, sample Day_6_JQ1): 28.9059
